# Assay results reported in patent US11219625B2, “Inhibitors of N-linked glycosylation and methods using same” (YALE UNIVERSITY, priority 2015, dated 2022).
# Legend:
# Assay type in all cases: cell-based
# [1] = Celltiter Glo viability assay, HEK293; conditions: human, HEK293 cells; HEK293, 72 h of compound exposure; read-out: Cytotoxicity Assay Mean EC50
# Source text: (§1) The HTS approach using the bioluminescent N-linked glycosylation reporter (CCR 2011) in D54-ERLucT and D54-LucT cells has been previously described (Bennett, et al., Transl Oncol 2013, 6, 382-391). Briefly, the primary cell-based screen detects site occupancy of NLG sequons using a modified luciferase protein translated into the ER. […] The methodology for the primary (D54-ERlucT), secondary (D54-LucT), and tertiary (luciferase inhibition) screens as well and toxicity assays with CelltitreGlo are deposited in Pubchem (AID 588693).
# (§2) To better understand the connection between structure and activity, analogs were prepared and tested in the D54-ERLucT cell based assay for inhibition of N-linked glycosylation (FIG. 1B). The assay was used to estimate and compare AC40 values among analogs and to guide the design of improved compounds that inhibited N-linked glycosylation. This effort generated 36 unique compounds with modifications to the amine component of the sulfonamide functionality (red), the pyrrolidine moiety (blue) or the methylaminothiazole group (green). Generally, incorporation of larger sulfonamides (i.e., larger secondary amines appended to the sulphone) was not well tolerated, resulting in erosion of potency (7 analogs). However, steric interactions could be mitigated by the introduction of a hydrogen bond accepting oxygen in a larger cyclic amine. Thus, morpholine was determined to be an acceptable surrogate for the dimethylamine component of the sulfonamide (FIGS. 1A-1D). The pyrrolidine group (blue) was replaced with various alkyl, cycloalkyl, and amine groups (7 compounds). The aminothiazole moiety was derivatized most extensively of all three regions (green highlighted area, 22 analogs). […] Analogs with the highest potency in the luciferase assay were retested with western blot analysis to insure that measurements of luciferase activation corresponded to loss of N-linked glycosylation.
# HEK293 cells = experiment: Celltiter Glo viability assay, HEK293; conditions: HEK293 EC50 over NLG AC40
# Source text: as §1, §2
# OST = experiment: 35S metabolic labeling of pSAP and SHBG in Hela cells
# Procedure: FIGS. 2A-2I illustrate the finding that NGI-1 blocks OST function. FIG. 2A illustrates the western blots of glycosylated luciferase (Luc) after treatment with 1 μM tunicmaycin (Tn) and 10 μM NGI-1 in CHO-Lec15 and CHO-Lec35 cells with stable expression of ER-LucT. FIG. 2B is a […] illustrating FACE analysis of lipid linked oligosaccharides (LLOs). FIG. 2C is a series of western blots illustrating the effects of NGI-1 (5 μM) on free oligosaccharides (left panel) and N-linked glycans cleaved from peptides with Peptide-N-Glycosidase F (right panel). Carbohydrate size is indicated with glucose markers (G4-G7). FIG. 2D is a western blot illustrating cell free inhibition of the OST using a rabbit reticulocyte lysate translation system supplemented with canine pancreas rough microsomes (cRM). Saposin-DDK-His6 mRNA was translated for 60 min in the presence of ^35S methionine and the indicated concentration of NGI-1 or Tn. […] FIG. 2E comprises a series of western blots illustrating results from NGI-1 compared to siRNA knockdown of STT3A or STT3B. Glycoforms are represented by 0-5n and 0-2n respectively and average number of glycans per sample is reported for each condition. NC=non-coding siRNA, EH=endoglycosidase H treated. […] FIGS. 2G-2H: Dose response and quantitation of NGI-1 effect on pSAP (squares) and SHBG glycosylation (circles). […]
compound,measurement,setting,value
"Cc1cnc(NC(=O)c2cc(S(=O)(=O)N(C)C)ccc2N2CCCC2)s1 [NGI-1, 5-(N,N-Dimethylsulfamoyl)-N-(5-methylthiazol-2-yl)-2-(pyrrolidin-1-yl)benzamide]",EC50 at 72 h,[1],> 30 µM
same,Selectivity (EC50/AC40),HEK293 cells,>172
same,glycosylation of pSAP and SHBG sites,"OST; 10 μM NGI-1, 24 h, compared to STT3A/STT3B knockdown",reduced glycosylation of all sites on pSAP and SHBG
same,reversibility of OST inhibition,"OST; NGI-1 24 h prior to, during 20 min labeling, or both",reversible OST inhibitor
